Source: patent publication US7348342B2, “Heterocyclic compounds process for their preparation and pharmaceutical compositions containing them and their use in medicine” (Cadila Healthcare Limited, priority 2002, dated 2008)

Test system: carrageenan foot pad edema
Experiment: carrageenan foot pad edema test
Assay type: in vivo
Settings: Wistar rats, dose 30 mg/kg by oral gavage 1 h before carrageenan; for % Inhibition of paw edema 1 hour: 1 hour after carrageenan injection; for % Inhibition of paw edema 3 hour: 3 hour after carrageenan injection
Source text: The compounds of the present invention have been tested for their biological activities by carrageenan foot pad edema test in male as well as female Wistar rats according to standard protocol described in literature (Winter et. al, Proc. Soc. Exp. Biol. Med., 111, 544, (1962); Otterness and Bliven, Laboratory Models for Testing NSAIDS, in Non-Steroidal Anti-inflammatory Drugs, (J. Lombardino, ed. 1985)). The protocol followed was as described below:
Wistar rats obtained from the Experimental Animal Facility of Zydus Research. Centre. Animals were housed in an environmentally controlled rooms with food and water available ad-libitum. All the experimental protocols were approved by the Institutional Animal Ethics Committee. Animals were divided into different groups, each group comprising of five-six animals. After an overnight fast, animals of the control group received vehicle only by oral gavage whereas animals of the other groups received different doses of the test substance(s). Each rat received same volume of the formulation i.e. 2 ml/kg on body weight basis. One hour after administration of the vehicle or test substance, all the animals received sub-planter injection of carrageenan (1% w/v in saline). Paw volume was measured at 0, 1, 3 and 5 hour after carrageenan injection. Anti-inflammatory activity, expressed as % Inhibition in paw swelling was calculated by measuring change in paw volume at different time intervals after carrageenan injection vs corresponding 0 hr values using the following formula.
[formula] Where • PVC=Average change in Paw volume of control animals • PVT=Average change in Paw volume of treated animals.

Molecule	% Inhibition of paw edema 1 hour [%]	% Inhibition of paw edema 3 hour [%]
3-(4-Methylphenyl)-4-(3-fluoro-4-methylsulfoximinylphenyl-5H-furan-2-one [Compound 112]	57	40
3-(4-Methoxyphenyl)-5-methyl-4-(4-methylsulfoximinylphenyl)-isoxazole [Compound 154]	46	47
5-methyl-4-(4-methylsulfoximinylphenyl)-3-phenyl-isoxazole [Compound 153]	42	43
5-Chloro-3-(4-methylsulfoximinylphenyl)-[2,3′]bipyridinyl [Compound 97]	13	36
Cc1ccc(-c2cc(C(F)(F)F)nn2-c2ccc(S(N)(=O)=O)cc2)cc1 [Celecoxib, reference compound]	33	26
